Assay results from paper PMC8484140 (Targeted Oncology, 2021).

Tests used:
[1] = Pharmacokinetics of exemestane, additional 21 patients; type: in vivo; conditions: female, human, plasma, oral
advanced breast cancer = conditions: in combination with exemestane; cited from earlier work

With `C=C1C[C@@H]2[C@H](CC[C@]3(C)C(=O)CC[C@@H]23)[C@@]2(C)C=CC(=O)C=C12` [Exemestane] the Tmax [1] was 3.95 h, the half-life [1] was 5.68 h and the AUC(0-t) ([1]; 25 mg) was 54.6 ng·h/mL. It also gave a Cmax ([1]; 25 mg) of 17 ng/mL, a Tmax ([1]; 25 mg) of 1.02 h and a half-life ([1]; 25 mg) of 6.24 h.
For `Nc1cc(F)ccc1NC(=O)c1ccc(CNC(=O)/C=C/c2cccnc2)cc1` [chidamide], the “Median PFS” value (advanced breast cancer) is listed as 7.4 months, the “Neutropenia, patients” value (advanced breast cancer) is listed as 51% and the “Thrombocytopenia, patients” value (advanced breast cancer) is listed as 28%.
